The supplement of paper PMC13380429

How the values were obtained:
[1] = test system: A549-ACE2 infected with SARS-CoV-2; assay: morphology score (similarity to uninfected cells); higher = more like uninfected cells; conditions: 24 h
A549-ACE2 [2] = assay: phospholipidosis EC50; higher = less potent phospholipidosis inducer
Calu-3 [3] = assay: relative viability EC50 (midpoint between 100% and the lowest measured viability); higher = less toxic; conditions: 72 h
HepG2 [4] = assay: as above; conditions: 72 h
Caco-2 [5] = assay: as above; conditions: 72 h
U2OS [6] = assay: as above; conditions: 72 h
Vero E6 [7] = assay: as above; conditions: 72 h
Calu-3 [8] = assay: drug sensitivity score (DSS) for viability; higher = more toxic; extreme values may be limits of the assay; conditions: 72 h
HepG2 [9] = assay: as above; conditions: 72 h
Caco-2 [10] = assay: as above; conditions: 72 h
U2OS [11] = assay: as above; conditions: 72 h
Vero E6 [12] = assay: as above; conditions: 72 h
[13] = test system: A549-ACE2 infected with SARS-CoV-2; assay: SARS-CoV-2 infection rate relative to DMSO; higher = more infection; conditions: 24 h
[14] = test system: A549-ACE2 infected with SARS-CoV-2; assay: cell count relative to DMSO; higher = less toxic; conditions: 24 h
A549-ACE2 [15] = assay: drug-induced phospholipidosis relative to tamoxifen; higher = more phospholipidosis
Calu-3 [16] = assay: cell viability relative to DMSO; higher = less toxic; conditions: 72 h
HepG2 [17] = assay: as above; conditions: 72 h
Caco-2 [18] = assay: as above; conditions: 72 h
U2OS [19] = assay: as above; conditions: 72 h
Vero E6 [20] = assay: as above; conditions: 72 h

Cc1cc(Nc2ncc(Cl)c(Nc3ccccc3S(=O)(=O)C(C)C)n2)c(OC(C)C)cc1C1CCNCC1 [ceritinib]
Conditions | SARS-CoV-2 infection rate [%] | cell count [%] | cell viability [%] | morphology score | phospholipidosis EC50 [nM]
A549-ACE2 [2], 24 h | – | – | – | – | 2940
A549-ACE2 [2], 48 h | – | – | – | – | 1790
Caco-2 [18], 1 nM | – | – | 99.3 | – | –
Caco-2 [18], 10 nM | – | – | 88.1 | – | –
Caco-2 [18], 100 nM | – | – | 107 | – | –
Caco-2 [18], 1000 nM | – | – | 83.7 | – | –
Caco-2 [18], 10000 nM | – | – | 10.1 | – | –
Calu-3 [16], 1 nM | – | – | 102 | – | –
Calu-3 [16], 10 nM | – | – | 108 | – | –
Calu-3 [16], 100 nM | – | – | 102 | – | –
Calu-3 [16], 1000 nM | – | – | 87.5 | – | –
Calu-3 [16], 10000 nM | – | – | 0.5 | – | –
HepG2 [17], 1 nM | – | – | 94.5 | – | –
HepG2 [17], 10 nM | – | – | 91.3 | – | –
HepG2 [17], 100 nM | – | – | 106 | – | –
HepG2 [17], 1000 nM | – | – | 71.4 | – | –
HepG2 [17], 10000 nM | – | – | 0.2 | – | –
U2OS [19], 1 nM | – | – | 97.7 | – | –
U2OS [19], 10 nM | – | – | 92.8 | – | –
U2OS [19], 100 nM | – | – | 97.3 | – | –
U2OS [19], 1000 nM | – | – | 86.2 | – | –
U2OS [19], 10000 nM | – | – | 5.7 | – | –
Vero E6 [20], 1 nM | – | – | 99.4 | – | –
Vero E6 [20], 10 nM | – | – | 101 | – | –
Vero E6 [20], 100 nM | – | – | 97.9 | – | –
Vero E6 [20], 1000 nM | – | – | 95.9 | – | –
Vero E6 [20], 10000 nM | – | – | 17 | – | –
[1], 0.1 µM | – | – | – | 0.01 | –
[1], 0.3 µM | – | – | – | 0.04 | –
[1], 1 µM | – | – | – | 0.56 | –
[1], 3 µM | – | – | – | 0.69 | –
[13], 0.1 µM | 110 | – | – | – | –
[13], 0.3 µM | 96 | – | – | – | –
[13], 1 µM | 65 | – | – | – | –
[13], 3 µM | 44 | – | – | – | –
[14], 0.1 µM | – | 104 | – | – | –
[14], 0.3 µM | – | 100 | – | – | –
[14], 1 µM | – | 97 | – | – | –
[14], 3 µM | – | 90 | – | – | –

Conditions | drug sensitivity score | relative viability EC50 [nM]
Caco-2 [5] | – | 1820
Caco-2 [10] | 7.7 | –
Calu-3 [3] | – | 2150
Calu-3 [8] | 7.6 | –
HepG2 [4] | – | 1440
HepG2 [9] | 9.7 | –
U2OS [6] | – | 2010
U2OS [11] | 7.5 | –
Vero E6 [7] | – | 2780
Vero E6 [12] | 5.2 | –

drug-induced phospholipidosis [%], A549-ACE2 [15]
Conditions | 0.3 µM | 0.833333 µM | 3.33333 µM | 6.66667 µM | 10 µM | 30 µM
24 h | 9.71 | 10.9 | 62 | 78.4 | 87.3 | 66.3
48 h | 12.5 | 7.38 | 84.3 | 87.6 | 93 | 69.7
72 h | 11.3 | 5.24 | 83.1 | – | – | –

CN(C)CCCCC(=O)Nc1ccc(NC(=S)NC(=O)c2ccc(C(C)(C)C)cc2)cc1 [tenovin-6]
Conditions | SARS-CoV-2 infection rate [%] | cell count [%] | cell viability [%] | morphology score | phospholipidosis EC50 [nM]
A549-ACE2 [2], 24 h | – | – | – | – | 2910
Caco-2 [18], 1 nM | – | – | 92.9 | – | –
Caco-2 [18], 10 nM | – | – | 100 | – | –
Caco-2 [18], 100 nM | – | – | 98.5 | – | –
Caco-2 [18], 1000 nM | – | – | 94.6 | – | –
Caco-2 [18], 10000 nM | – | – | 12.2 | – | –
Calu-3 [16], 1 nM | – | – | 91.1 | – | –
Calu-3 [16], 10 nM | – | – | 107 | – | –
Calu-3 [16], 100 nM | – | – | 101 | – | –
Calu-3 [16], 1000 nM | – | – | 95.1 | – | –
Calu-3 [16], 10000 nM | – | – | 4.2 | – | –
HepG2 [17], 1 nM | – | – | 107 | – | –
HepG2 [17], 10 nM | – | – | 101 | – | –
HepG2 [17], 100 nM | – | – | 110 | – | –
HepG2 [17], 1000 nM | – | – | 88.8 | – | –
HepG2 [17], 10000 nM | – | – | 0.8 | – | –
U2OS [19], 1 nM | – | – | 94 | – | –
U2OS [19], 10 nM | – | – | 97.9 | – | –
U2OS [19], 100 nM | – | – | 96.3 | – | –
U2OS [19], 1000 nM | – | – | 101 | – | –
U2OS [19], 10000 nM | – | – | 5.4 | – | –
Vero E6 [20], 1 nM | – | – | 99.4 | – | –
Vero E6 [20], 10 nM | – | – | 96.7 | – | –
Vero E6 [20], 100 nM | – | – | 104 | – | –
Vero E6 [20], 1000 nM | – | – | 103 | – | –
Vero E6 [20], 10000 nM | – | – | 27.8 | – | –
[1], 0.1 µM | – | – | – | 0.22 | –
[1], 0.3 µM | – | – | – | 0.15 | –
[1], 1 µM | – | – | – | -0.08 | –
[1], 3 µM | – | – | – | 0.8 | –
[13], 0.1 µM | 91 | – | – | – | –
[13], 0.3 µM | 90 | – | – | – | –
[13], 1 µM | 93 | – | – | – | –
[13], 3 µM | 23 | – | – | – | –
[14], 0.1 µM | – | 100 | – | – | –
[14], 0.3 µM | – | 102 | – | – | –
[14], 1 µM | – | 98 | – | – | –
[14], 3 µM | – | 113 | – | – | –

Conditions | drug sensitivity score | relative viability EC50 [nM]
Caco-2 [5] | – | 2680
Caco-2 [10] | 5.7 | –
Calu-3 [3] | – | 2770
Calu-3 [8] | 6 | –
HepG2 [4] | – | 2240
HepG2 [9] | 7.3 | –
U2OS [6] | – | 3240
U2OS [11] | 5.2 | –
Vero E6 [7] | – | 3370
Vero E6 [12] | 3.8 | –

drug-induced phospholipidosis [%], A549-ACE2 [15]
Conditions | 0.3 µM | 0.833333 µM | 3.33333 µM | 6.66667 µM | 10 µM
24 h | -1.65 | -1.47 | 61.4 | 90.4 | 56.6
48 h | 1.91 | 0.33 | 30 | – | –
72 h | 0.744 | -3.12 | 26.8 | – | –
